Key:
adenosine A2 receptor = assay: Receptor affinity (radioligand binding), A2, [3H]NECA; design: species or system bovine / guinea pig; conditions: room temperature, 1 hour
Protocol: (§1) 1. Receptor Affinity Experiments (Radioligand Binding)
(§2) Tissues (bovine caudate, guinea pig cortex, guinea pig striatum) were homogenized with a Brinkman polytron and the membranes were collected by centrifugation at 40,000×g at 4° C. for 10 min. The membranes were washed by resuspension and centrifugation, resuspended, and incubated in the presence of 1 U/ml adenosine deaminase for 15-30 min. at 37° C. The membranes were diluted, centrifuged once, and resuspended to a final concentration of 0.5-2 mg protein/ml. Adenosine deaminase (0.1 U/ml) was included in the final resuspension. Assays were initiated by addition of membranes. The compounds of the present invention were subjected to the following experimental conditions: A1 determinations/incubated with [^3 H]CHA at room temperature for 2 hours, A2 determinations/incubated with [^3 H]NECA at room temperature for 1 hour. Assays were terminated by filtration, and the filters were counted in scintillation counters.

adenosine A1 receptor [1] = molecular target: T1, adenosine A1 receptor (Bos taurus, UniProt P28190); assay: Receptor affinity (radioligand binding), A1, [3H]CHA; design: species or system bovine; conditions: for Ki: [3H]CHA, room temperature, 2 hours, tissues listed: bovine caudate, guinea pig cortex, guinea pig striatum (only Example 13 marked guinea pig); for Selectivity Ratio (A2 Ki /A1 Ki): radioligand binding
T1 construct: were homogenized with a Brinkman polytron and the membranes were collected by centrifugation; from tissue; host or cells: bovine caudate membranes
T1 sequence (P28190 1-326): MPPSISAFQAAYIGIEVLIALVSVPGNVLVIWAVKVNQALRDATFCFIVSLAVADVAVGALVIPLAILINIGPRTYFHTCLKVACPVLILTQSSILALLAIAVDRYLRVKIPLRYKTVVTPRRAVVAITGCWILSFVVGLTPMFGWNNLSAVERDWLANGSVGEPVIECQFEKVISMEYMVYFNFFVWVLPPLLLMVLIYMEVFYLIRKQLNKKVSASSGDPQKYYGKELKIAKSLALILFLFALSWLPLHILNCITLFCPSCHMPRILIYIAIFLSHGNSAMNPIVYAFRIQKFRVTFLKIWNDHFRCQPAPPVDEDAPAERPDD
Protocol: as §1, §2

adenosine A1 receptor [2] = molecular target: T2, adenosine A1 receptor (Cavia porcellus, UniProt P47745); assay: A1 in vitro functional test: negative inotropic response, left atria, antagonism of NECA; type: cell-based, guinea pig; conditions: for Kb: guinea pig left atria, electrically evoked twitch, NECA agonist, 31° C, Schild plot, read-out: A1 KB (antagonist dissociation constant); for Selectivity Ratio (A2 KB /A1 KB): functional
T2 construct: from tissue; host or cells: isolated guinea pig left atria
T2 sequence (P47745 1-326): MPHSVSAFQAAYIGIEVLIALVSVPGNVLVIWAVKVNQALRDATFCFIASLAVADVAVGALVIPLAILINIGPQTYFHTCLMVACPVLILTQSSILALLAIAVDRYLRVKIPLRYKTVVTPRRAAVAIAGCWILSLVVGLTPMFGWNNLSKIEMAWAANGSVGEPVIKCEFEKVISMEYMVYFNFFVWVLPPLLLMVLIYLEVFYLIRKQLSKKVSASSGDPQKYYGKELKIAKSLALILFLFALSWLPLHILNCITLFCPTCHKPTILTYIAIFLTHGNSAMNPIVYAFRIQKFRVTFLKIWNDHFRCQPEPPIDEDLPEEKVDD
Protocol: 2. Adenosine--A1 /A2 In Vitro Functional Tests
(A1 Assay: Negative inotropic response)-Guinea pig left atria were placed in organ baths filled with Krebs Henseleit solution gassed with 95% O2 and 5% CO2 and maintained at a temperature of 31° C. An initial resting tension of 1 gm. was placed on each tissue, which was allowed to equilibrate. Atria were stimulated electrically to produce twitch responses. A dose-response curve for the inhibition of the electrically-evoked twitch response was obtained by cumulative addition of the adenosine agonist […]. After the washout of the tissue, a fixed concentration of test compound was added and the tissue allowed to equilibrate for 1 hr. before cumulative additions of the adenosine agonist 5'-N-ethylcarboxamidoadenosine (NECA) to generate a new dose response curve. This procedure was repeated with different fixed concentrations of test compounds to generate a family of dose response curves. Schild plots were constructed from the resultant concentration-effect curves, and KB (antagonist dissociation constant) values were obtained. The results (see Table VII) are expressed as KB values (concentration of test compound such that one-half of the tissue adenosine receptor population is occupied by the test compound).

| SMILES | Ki (adenosine A2 receptor) | Ki (adenosine A1 receptor [1]) | Selectivity Ratio (A2 Ki /A1 Ki) (adenosine A1 receptor [1]) | Kb (adenosine A1 receptor [2]) | Selectivity Ratio (A2 KB /A1 KB) (adenosine A1 receptor [2]) |
| --- | --- | --- | --- | --- | --- |
| CCCCN(C)c1nc2c(N[C@H]3C[C@H]4CC[C@@H]3C4)ncnc2n1C (relative stereo) [Example 11] | 11 µM | 0.0458 µM | 240 |  |  |
| CCN(CC)c1nc2c(N[C@H]3C[C@H]4CC[C@@H]3C4)ncnc2n1C (relative stereo) [Example 10, (±)-N^6-(endo-2'-norbornyl)-8-diethylamino-9-methyladenine] | 0.331 µM | 0.001 µM | 331 | 0.117 µM |  |
| CCCn1cnc2c(N[C@@H]3C[C@H]4C[C@@H]3C[C@H]4O)ncnc21 (relative stereo) [Example 42] | 6.46 µM | 0.0288 µM | 224 |  |  |
| Cn1cnc2c(NC3CCCCC3)ncnc21 [Example 47, N^6-cyclohexyl-9-methyladenine, reference compound] | 11 µM | 0.0457 µM | 241 | 2.08 µM | > 152 |
| Cn1c(N2CCOCC2)nc2c(NC3CCCC3)ncnc21 [Example 15] | > 10 µM | 0.042 µM | > 238 |  |  |
| Cn1c(C(N)=O)nc2c(N[C@H]3C[C@H]4CC[C@@H]3C4)ncnc21 (relative stereo) [Example 2, (±)-N^6-(endo-2'-norbornyl)-8-amido-9-methyladenine] | 3.55 µM | 0.0129 µM | 275 | 0.257 µM | > 390 |
| CN(C)c1nc2c(N[C@H]3C[C@@H]4C[C@H]3C[C@@H]4O)ncnc2n1C (relative stereo) [Example 18, (±)-N^6-[endo-2'-(endo-5'-hydroxy)norbornyl]-8-dimethylamino-9-methyladenine] | 0.275 µM | 0.00275 µM | 100 | 0.072 µM |  |
| Cn1cnc2c(N[C@@H]3C[C@@H]4CC[C@H]3C4)ncnc21 (relative stereo) [Example 49, N^6-(endo-2-norbornyl)-9-methyladenine, reference compound] | 6.17 µM | 0.01 µM | 617 | 0.55 µM | 36 |
| CC(C)n1cnc2c(N[C@@H]3C[C@H]4C[C@@H]3C[C@H]4O)ncnc21 (relative stereo) [Example 45] | > 10 µM | 0.295 µM | > 34 |  |  |
| CN(C)c1nc2c(N[C@@H]3C[C@@H]4CC(=O)[C@H]3C4)ncnc2n1C (relative stereo) [Example 28] | 4.57 µM | 0.00831 µM | 550 |  |  |
| Cn1cnc2c(N[C@H]3C[C@H]4C[C@@H]3C[C@H]4O)ncnc21 (relative stereo) [Example 31] | 14.4 µM | 0.105 µM | 137 | 4.07 µM |  |
| Cn1cnc2c(NC3CCCC3)ncnc21 [Example 48, N^6-cyclopentyl-9-methyladenine, reference compound] | 5.01 µM | 0.01 µM | 501 | 0.759 µM | > 395 |
| COc1ccc2c(c1)[C@H]1C[C@H](Nc3ncnc4c3ncn4C)[C@@H]2C1 (relative stereo) [Example 40] | 5.62 µM | 0.00891 µM | 631 | 1.12 µM |  |
| CSc1nc2c(N[C@H]3C[C@H]4CC[C@@H]3C4)ncnc2n1C (relative stereo) [Example 3, (±)-N^6-[endo-2'-norbornyl]-8-methylthio-9-methyladenine] | 0.398 µM | 0.00603 µM | 66 | 0.065 µM | > 1540 |
| CCN(CC)c1nc2c(NC3CCCC3)ncnc2n1C [Example 14] | 0.436 µM | 0.00372 µM | 117 |  |  |
| Cn1c(Br)nc2c(N[C@H]3C[C@H]4CC(=O)[C@@H]3C4)ncnc21 (relative stereo) [Example 19] | 0.347 µM | 0.00347 µM | 100 | 0.115 µM |  |

| SMILES | Ki (adenosine A2 receptor) | Ki (adenosine A1 receptor [1]) | Selectivity Ratio (A2 Ki /A1 Ki) (adenosine A1 receptor [1]) | Kb (adenosine A1 receptor [2]) | Selectivity Ratio (A2 KB /A1 KB) (adenosine A1 receptor [2]) |
| --- | --- | --- | --- | --- | --- |
| Cn1cnc2c(N[C@H]3C[C@H]4C[C@@H]3c3ccccc34)ncnc21 (relative stereo) [Example 38] | 5.89 µM | 0.0178 µM | 331 | 1.58 µM |  |
| Cn1cnc2c(N[C@H]3C[C@H]4C[C@@H]3[C@H](O)C4)ncnc21 (relative stereo) [Example 35] | 35.5 µM | 0.295 µM | 120 |  |  |
| CC(C)n1cnc2c(N[C@@H]3C[C@H]4C[C@@H]3CC4=O)ncnc21 (relative stereo) [Example 44] | 21.4 µM | 0.251 µM | 85 |  |  |
| Cn1c(N2CCCC2)nc2c(N[C@H]3C[C@H]4CC[C@@H]3C4)ncnc21 (relative stereo) [Example 7] | > 10 µM | 0.019 µM | > 526 |  |  |
| CC(C)n1cnc2c(N[C@@H]3C[C@H]4C[C@@H]3C[C@@H]4O)ncnc21 (relative stereo) [Example 46] | > 10 µM | 0.295 µM | > 34 |  |  |
| Cn1cnc2c(N[C@@H]3C[C@H]4C[C@@H]3CC4=O)ncnc21 (relative stereo) [Example 29, (±)-N^6-[endo-2'-aminonorbornan-5-one]-9-methyladenine] | > 10 µM | 0.501 µM | > 20 |  |  |
| Cn1c(N2CCSCC2)nc2c(N[C@H]3C[C@H]4CC[C@@H]3C4)ncnc21 (relative stereo) [Example 9] | 10 µM | 0.00794 µM | 1,259 |  |  |
| Cn1c(Br)nc2c(N[C@@H]3C[C@H]4C[C@@H]3C[C@@H]4O)ncnc21 (relative stereo) [Example 27] | 0.661 µM | 0.00501 µM | 132 |  |  |
| CCCn1cnc2c(N[C@@H]3C[C@H]4C[C@@H]3C[C@@H]4O)ncnc21 (relative stereo) [Example 43] | > 10 µM | 0.257 µM | > 39 |  |  |
| Cn1cnc2c(N[C@H]3C[C@H]4C[C@@H]3c3ccc(O)cc34)ncnc21 (relative stereo) [Example 37, (±)-N^6-(exo-2'-amino-6'-hydroxybenzonorbornyl)-9-methyladenine] | 4.57 µM | 0.0115 µM | 397 |  |  |
| Cn1c(N2CCOCC2)nc2c(N[C@H]3C[C@H]4CC[C@@H]3C4)ncnc21 (relative stereo) [Example 6] | > 10 µM | 0.024 µM | > 417 |  |  |
| Cn1cnc2c(N[C@H]3C[C@H]4C[C@@H]3CC4=O)ncnc21 (relative stereo) [Example 33] | 11.5 µM | 0.0427 µM | 269 |  |  |
| Cn1c(N2CCOCC2)nc2c(N[C@H]3C[C@@H]4C[C@H]3C[C@@H]4O)ncnc21 (relative stereo) [Example 25] | > 10 µM | 0.019 µM | > 526 |  |  |
| CC(C)Nc1nc2c(N[C@@H]3C[C@H]4C[C@@H]3C[C@H]4O)ncnc2n1C (relative stereo) [Example 26] | 5.75 µM | 0.00955 µM | 602 |  |  |
| Cn1cnc2c(N[C@H]3C[C@@H]4CC(=O)[C@H]3C4)ncnc21 (relative stereo) [Example 34] | 15.1 µM | 0.0692 µM | 218 |  |  |

Source: patent US5670501A, “N-substituted 9-alkyladenines” (Discovery Therapeutics, Inc., priority 1994, dated 1997)
